# Values of other authors in patent publication EP0594592B1, “A GROWTH FACTOR IN […] ARTIFICIAL TRANSPLANTS” (Strid, Lars, priority 1990, dated 1997).
# Experiments:
# thromboxane = conditions: result in words
# [1] = on a molar basis
# [2] = system: macrophages, monocytes, mast cells and capillary endothelial cells; conditions: result in words
# blood platelets = conditions: result in words
substance,measurement,setting,value
copper complex of the tripeptide glycyl-L-histidyl-L-lysine [GHK-Cu^2+],effect on the hormone thromboxane,thromboxane,inhibits
same,fibroblasts synthesis of collagen,"fibroblasts; at 10^-9M, result in words",almost doubles
same,increase in collagen synthesis,"fibroblasts; cultures of fibroblasts, at 10^-9M",about 80%
same,peptide concentration at which stimulation of collagen synthesis is observed (as low as),"fibroblasts; cultures of fibroblasts, lowest concentration with stimulation",10^-12 M
same,peptide concentration of maximum stimulation of collagen synthesis,"fibroblasts; cultures of fibroblasts, maximal activity",10^-9 M
same,"superoxide dismutase-like activity, rate constant relative to enzymatic Cu,Zn-superoxide dismutase",[1],about 25%
same,chemoattractive effect on cells necessary for wound-healing,[2],chemoattractive effect
same,aggregation of blood platelets,blood platelets,inhibits
